Data taken from ChEMBL document CHEMBL4393650, “The Journey of HIV-1 Non-Nucleoside Reverse Transcriptase Inhibitors (NNRTIs) from Lab to Clinic” (J Med Chem, 2019).

Columns and labels:
[1] = Lipophilicity, log P of the compound; type: physicochemical; conditions: octanol/water
[2] = Half life in human serum at 200 mg, bid; type: ADME, cell-free
[3] = target: Human immunodeficiency virus type 1 reverse transcriptase (Human immunodeficiency virus 1) (UniProt Q72547); assay: Inhibition of HIV1 3B reverse transcriptase infected in human PBMC cells after 4 days; type: cell-based
[4] = Oral bioavailability in human; type: ADME, organism-based; conditions: in vivo
[5] = Half life in human serum at 100 mg, qd; type: ADME, cell-free
[6] = system: Human immunodeficiency virus 1; assay: Antiviral activity against HIV1 subtype B; type: functional, organism-based; conditions: Human immunodeficiency virus 1, subtype B
[7] = target: T1, Human immunodeficiency virus type 1 reverse transcriptase (Human immunodeficiency virus 1, UniProt Q72547); assay: Inhibition of HIV1 reverse transcriptase
[8] = target: T1, Human immunodeficiency virus type 1 reverse transcriptase; assay: Inhibition of wild type recombinant HIV1 reverse transcriptase using poly(rA)-oligo(dT) as template/primer
[9] = system: Human immunodeficiency virus 1; assay: Antiviral activity against HIV1; type: functional, organism-based
[10] = system: Human immunodeficiency virus 1; assay: Antiviral activity against HIV1 assessed as serum adjusted potency; type: functional, organism-based
[11] = Half life in human serum at 600 mg, qd; type: ADME, cell-free
[12] = Half life in human serum at 400 mg, qd; type: ADME, cell-free
[13] = Cmax in rat; type: ADME; conditions: in vivo
[14] = Cmax in Beagle dog; type: ADME, Canis lupus familiaris; conditions: in vivo
[15] = Tmax in rat; type: ADME; conditions: in vivo
[16] = target: T1, Human immunodeficiency virus type 1 reverse transcriptase; assay: Inhibition of HIV1 reverse transcriptase derived from HIV patient plasma by LC/MS/MS analysis
[17] = Half life in human serum at 25 mg, qd; type: ADME, cell-free
[18] = target: Human immunodeficiency virus type 1 reverse transcriptase (Human immunodeficiency virus 1) (UniProt Q72547)

Question: For Cc1ccnc2c1NC(=O)c1cccnc1N2, which logP [1] is on record?
Answer: Its logP is 1.52.

Question: Which half-life [2] does the source give for Cc1cc(C#N)cc(C)c1Oc1nc(Nc2ccc(C#N)cc2)nc(N)c1Br [ETRAVIRINE] here?
Answer: The half-life was 41 h.

Question: With CC(C)Nc1cccnc1N1CCN(C(=O)c2cc3ccccc3[nH]2)CC1 as the molecule, how does the ED50 [3] read?
Answer: Its ED50 is 0.3 µM.

Question: For Cc1ccnc2c1NC(=O)c1cccnc1N2C1CC1 [NEVIRAPINE], which logP [1] is on record?
Answer: The logP was 2.05.

Question: And the bioavailability [4]?
Answer: The bioavailability was 95%.

Question: What about the half-life [2] of the same molecule?
Answer: The half-life was 25 to 30 h.

Question: Which logP [1] does the source give for O=C1Nc2cccnc2Nc2ncccc21 here?
Answer: The logP was 1.03.

Question: For CCN1c2ncccc2C(=O)N(C)c2cccnc21, which logP [1] is on record?
Answer: The logP was 1.84.

Question: With Cn1c(Cn2ccc(C(F)(F)F)c(Oc3cc(Cl)cc(C#N)c3)c2=O)n[nH]c1=O [DORAVIRINE] as the molecule, how does the half-life [5] read?
Answer: The half-life was 11 to 15 h.

Question: With CC(C)Nc1cccnc1N1CCN(C(=O)c2cc3cc(F)ccc3[nH]2)CC1 as the molecule, how does the ED50 [3] read?
Answer: The ED50 was 0.3 µM.

Question: Which logP [1] does the source give for CCNc1cccnc1N1CCN(C(=O)c2cc(C)c(OC)c(C)c2)CC1 here?
Answer: Its logP is 3.3.

Question: What about the ED50 [3] of the same molecule?
Answer: Its ED50 is 2 µM.

Question: With NC(=O)c1[nH]c2cccc(Cl)c2c1S(=O)(=O)c1ccccc1 as the molecule, how does the EC50 [6] read?
Answer: Its EC50 is 1 µM.

Question: For CCOC1(c2ccccc2)c2cc(Cl)ccc2NC(=S)N1C (centres undefined), which IC50 [7] is on record?
Answer: Its IC50 is 0.056 µM.

Question: With O=C1Nc2ccccc2Nc2ncccc21 as the molecule, how does the logP [1] read?
Answer: The logP was 1.65.

Question: Which IC50 [7] does the source give for CC1O[C@](C#CC2CC2)(C(F)(F)F)c2cc(Cl)ccc2NC1=O (some centres undefined) here?
Answer: Its IC50 is 0.082 µM.

Question: With CCNc1cccnc1N1CCN(Cc2cc(C)c(OC)c(C)c2)CC1 as the molecule, how does the ED50 [3] read?
Answer: Its ED50 is 2 µM.

Question: What about the IC50 [8] of the same molecule?
Answer: Its IC50 is 20 µM.

Question: With Cc1cn([C@H]2C[C@H](N=[N+]=[N-])[C@@H](CO)O2)c(=O)[nH]c1=O as the molecule, how does the ED50 [3] read?
Answer: The ED50 was 0.07 µM.

Question: Which EC50 [6] does the source give for NC(=O)c1[nH]c2ccccc2c1S(=O)(=O)c1ccccc1 here?
Answer: Its EC50 is 180 µM.

Question: Which IC50 [7] does the source give for O=S1(c2ccccc2)=NC(=S)Nc2ccccc21 (centres undefined) here?
Answer: Its IC50 is 0.95 to 5.11 µM.

Question: What does the source list for N#Cc1cc(Cl)cc(Oc2c(Br)ccc(CC(=O)Nc3ccc(S(N)(=O)=O)cc3Cl)c2F)c1 [DEPULFAVIRINE]?
Answer: EC50 [9]: 0.0012 µM; EC50 [10]: 0.0138 µM

Question: Which logP [1] does the source give for CCN1c2ccccc2N(C)C(=O)c2cccnc21 here?
Answer: Its logP is 2.46.

Question: With CCNc1cccnc1N1CCN(C(=O)c2cc3ccccc3[nH]2)CC1 as the molecule, how does the ED50 [3] read?
Answer: Its ED50 is 0.3 µM.

Question: For O=C1Nc2ccc(Cl)cc2[C@@](C#CC2CC2)(C(F)(F)F)O1 [EFAVIRENZ], which half-life [11] is on record?
Answer: Its half-life is 40 to 55 h.

Question: Which ED50 [3] does the source give for COc1ccc2[nH]c(C(=O)N3CCN(c4ncccc4NC(C)C)CC3)cc2c1 here?
Answer: The ED50 was 0.3 µM.

Question: Which half-life [12] does the source give for CC(C)Nc1cccnc1N1CCN(C(=O)c2cc3cc(NS(C)(=O)=O)ccc3[nH]2)CC1 [DELAVIRDINE] here?
Answer: The half-life was 2 to 11 h.

Question: With Cc1cc(/C=C/C#N)cc(F)c1Nc1ccc(F)c(Nc2ccc(C#N)cc2)n1 as the molecule, how does the EC50 [6] read?
Answer: Its EC50 is 1000 µM.

Question: Which logP [1] does the source give for CCN1c2ncccc2C(=O)Nc2c(C)ccnc21 here?
Answer: The logP was 2.09.

Question: With CCNc1cccnc1N1CCN(C(=O)c2cc3cc(OC)ccc3[nH]2)CC1.CS(=O)(=O)O [ATEVIRDINE SULPHATE] as the molecule, how does the logP [1] read?
Answer: The logP was 1.28.

Question: What about the Cmax [13] of the same molecule?
Answer: The Cmax was 4.6 to 17.4 µM.

Question: What about the Cmax [14] of the same molecule?
Answer: Its Cmax is 16 to 33 µM.

Question: And the Tmax [15]?
Answer: The Tmax was 0.5 to 1 h.

Question: With O=C1Nc2cccnc2Nc2ccccc21 as the molecule, how does the IC50 [16] read?
Answer: The IC50 was 6 µM.

Question: With Cc1cc(/C=C/C#N)cc(C)c1Nc1ccnc(Nc2ccc(C#N)cc2)n1 [RILPIVIRINE] as the molecule, how does the half-life [17] read?
Answer: Its half-life is 50 h.

Question: With O=C1Nc2ccc(Cc3ccccc3)cc2[C@@](C#CC2CC2)(C(F)(F)F)O1 as the molecule, how does the IC90 [18] read?
Answer: Its IC90 is 0.279 µM.

Question: Which EC50 [6] does the source give for Cc1cc(/C=C/C#N)cc(F)c1Nc1cccc(Nc2ccc(C#N)cc2)n1 here?
Answer: Its EC50 is 5500 µM.

Question: Which IC50 [7] does the source give for CC1O[C@](/C=C/C2CC2)(C(F)(F)F)c2cc(Cl)ccc2NC1=O (some centres undefined) here?
Answer: Its IC50 is 0.046 µM.
